This experiment has as its system P388. The experiment is described as follows: Anticancer activity against mouse P388 cells. It is filed as functional. To be noted: read-out: ED50 (the source's name).

In brackets after ≈: the same amount, converted by molar mass. Peptide text beside a SMILES is read from it.

On to `CC[C@H](C)[C@@H]1NC(=O)[C@H](C)NC(=O)[C@H](CCSC)NC(=O)[C@H](C)NC(=O)[C@H](CC(N)=O)NC(=O)[C@H](Cc2ccccc2)NC(=O)[C@@H]2CCCN2C1=O` [PHAKELLI STATIN 5] (cyclo(AIPFNAM)), for which the EC50 worked out at 0.23 mg/L (≈ 0.309 µM). The figure for `CC[C@H](C)[C@@H]1NC(=O)[C@H](Cc2ccccc2)NC(=O)[C@@H]2CCCN2C(=O)[C@H](Cc2ccccc2)NC(=O)[C@@H]2CCCN2C(=O)[C@H](CCC(N)=O)NC(=O)[C@@H]2CCCN2C(=O)[C@H](Cc2ccccc2)NC1=O` [PHAKELLI STATIN 11] (cyclo(FIFPQPFP)) is 0.2 mg/L (≈ 0.205 µM). The same measure for `CC[C@H](C)[C@@H]1NC(=O)[C@@H]2CCCN2C(=O)[C@H](Cc2ccccc2)NC(=O)[C@@H]2CCCN2C(=O)[C@H](Cc2ccc(O)cc2)NC(=O)[C@@H]2CCCN2C(=O)[C@H]([C@@H](C)CC)NC1=O` [PHAKELLISTATIN 2] (cyclo(FPIIPYP)): 0.34 mg/L (≈ 0.411 µM); for `CC[C@H](C)[C@@H]1NC(=O)[C@@H]2CCCN2C(=O)[C@@H]2CCCN2C(=O)[C@H]([C@@H](C)CC)NC(=O)[C@H](Cc2ccc(O)cc2)NC(=O)[C@@H]2CCCN2C(=O)[C@@H]2CCCN2C(=O)[C@H](CC(C)C)NC(=O)[C@H]([C@@H](C)O)NC(=O)[C@H](Cc2ccccc2)NC1=O` [PHAKELLISTATIN 12] (cyclo(FTLPPYIPPI)): 2.8 mg/L (≈ 2.46 µM).
